Source: patent publication US20260217697A1, “COMPOUNDS COMPRISING HETEROARYL RINGS AND COMPOSITIONS AND METHODS THEREOF” (lonGen Therapeutics Co., Ltd., priority 2022, published 2026)

Molecular target: T1, hTRPV3 (Homo sapiens, UniProt Q8NET8)
T1 construct: The commercially available plasmid with the full-length cDNA of hTRPV3 (791 aa) (NM_001258205.2); host or cells: HEK293T
T1 sequence (Q8NET8 1-791 isoform Q8NET8-2): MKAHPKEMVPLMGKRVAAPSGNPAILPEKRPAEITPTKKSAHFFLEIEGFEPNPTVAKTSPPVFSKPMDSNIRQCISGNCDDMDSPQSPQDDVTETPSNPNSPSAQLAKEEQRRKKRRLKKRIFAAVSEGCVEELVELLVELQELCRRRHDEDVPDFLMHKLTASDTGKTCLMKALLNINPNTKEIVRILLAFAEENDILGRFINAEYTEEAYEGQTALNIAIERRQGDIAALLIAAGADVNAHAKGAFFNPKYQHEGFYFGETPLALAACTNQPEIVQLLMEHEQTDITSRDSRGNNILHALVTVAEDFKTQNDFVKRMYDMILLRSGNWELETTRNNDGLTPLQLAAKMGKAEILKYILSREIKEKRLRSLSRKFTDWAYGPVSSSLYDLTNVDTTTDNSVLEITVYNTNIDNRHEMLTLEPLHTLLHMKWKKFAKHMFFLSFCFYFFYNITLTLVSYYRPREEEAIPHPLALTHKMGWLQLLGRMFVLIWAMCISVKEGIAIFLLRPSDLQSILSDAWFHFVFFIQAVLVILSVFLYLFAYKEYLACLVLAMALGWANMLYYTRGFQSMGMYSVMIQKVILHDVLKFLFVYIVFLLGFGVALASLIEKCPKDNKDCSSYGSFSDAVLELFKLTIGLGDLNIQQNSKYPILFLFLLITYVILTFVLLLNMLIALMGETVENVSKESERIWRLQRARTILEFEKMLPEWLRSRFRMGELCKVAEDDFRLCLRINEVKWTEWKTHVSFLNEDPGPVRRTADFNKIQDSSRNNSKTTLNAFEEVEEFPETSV
Assay: Whole-cell patch-clamp recording of hTRPV3 current in transfected HEK293T cells (2-APB induced)
Type: cell-based
Settings: current induced by 300 μM 2-APB, compounds tested up to 10 μM, room temperature
Procedure, shortened: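 HEK293T cells transiently expressing full-length hTRPV3, recorded by whole-cell patch clamp 18 h post-transfection at room temperature, with 130 mM NaCl/0.3 mM EDTA/3 mM HEPES pH 7.4 on both sides. Holding potential 0 mV; 400-ms steps to +80 and −80 mV every 2 s. Block of 2-APB-evoked current, tested up to 10 μM, fitted to Hill equation for IC50.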

Q: How did the IC50 turn out when COc1ncnc(OC)c1C(=O)Nc1nc2c(s1)-c1ccc(C(F)(F)F)cc1OC21CC[S+]([O-])CC1 (centres unmarked) [compound 95, 4,6-dimethoxy-N-(1′-oxido-7-(trifluoromethyl)-2′,3′,5′,6′-tetrahydrospiro[chromeno[3,4-d]thiazole-4,4′-thiopyran]-2-yl)pyrimidine-5-carboxamide] was run?
A: The IC50 was 1000 to 10000 nM.

Q: With CCC1(CC)Oc2cc(C(F)(F)F)ccc2-c2nc(NC(=O)c3nccnc3OC)sc21 [compound 96, N-(4,4-diethyl-7-(trifluoromethyl)-4H-chromeno[4,3-d]thiazol-2-yl)-3-methoxypyrazine-2-carboxamide] as the molecule, how does the IC50 read?
A: Its IC50 is 1000 to 10000 nM.

Q: For [2H]C([2H])([2H])Oc1ncnc(OC([2H])([2H])[2H])c1C(=O)Nc1nc2c(s1)C(CC)(CC)Oc1cc(C(F)(F)F)ccc1-2 [compound 97, N-(4,4-diethyl-7-(trifluoromethyl)-4H-chromeno[4,3-d]thiazol-2-yl)-4,6-bis(methoxy-d3)pyrimidine-5-carboxamide], which IC50 is on record?
A: Its IC50 is 100 to 1000 nM.

Q: How did the IC50 turn out when CCC1(CC)Oc2cc(C(F)(F)F)ccc2-c2nc(NC(=O)c3c(OC)ccnc3OC)sc21 [compound 98, N-(4,4-diethyl-7-(trifluoromethyl)-4H-chromeno[4,3-d]thiazol-2-yl)-2,4-dimethoxynicotinamide] was run?
A: Its IC50 is 100 to 1000 nM.

Q: For COc1ncnc(OC)c1C(=O)Nc1nc2c(s1)COc1cccc(C(F)(F)F)c1-2 [compound 99, 4,6-dimethoxy-N-(9-(trifluoromethyl)-4H-chromeno[4,3-d]thiazol-2-yl)pyrimidine-5-carboxamide], which IC50 is on record?
A: Its IC50 is at least 10000 nM.

Q: Which IC50 does the source give for COc1ncnc(OC)c1C(=O)Nc1nc2c(s1)C(CF)(CF)Oc1cc(C(F)(F)F)ccc1-2 [compound 100] here?
A: The IC50 was under 100 nM.

Q: For COc1ncnc(OC)c1C(=O)Nc1nc2c(s1)C1(CCC(C(=O)O)CC1)Oc1cc(C(F)(F)F)ccc1-2 (centres unmarked) [compound 101, 2-(4,6-dimethoxypyrimidine-5-carboxamido)-7-(trifluoromethyl)spiro[chromeno[4,3-d]thiazole-4,1′-cyclohexane]-4′-carboxylic acid], which IC50 is on record?
A: Its IC50 is at least 10000 nM.

Q: Which IC50 does the source give for COc1ncnc(OC)c1C(=O)Nc1nc2c(s1)C1(CCC(C(N)=O)CC1)Oc1cc(C(F)(F)F)ccc1-2 (centres unmarked) [compound 102, 2-(4,6-dimethoxypyrimidine-5-carboxamido)-7-(trifluoromethyl)spiro[chromeno[4,3-d]thiazole-4,1′-cyclohexane]-4′-carboxamide] here?
A: The IC50 was at least 10000 nM.

Q: For CNC(=O)C1CCC2(CC1)Oc1cc(C(F)(F)F)ccc1-c1nc(NC(=O)c3c(OC)ncnc3OC)sc12 (centres unmarked) [compound 103, 2-(4,6-dimethoxypyrimidine-5-carboxamido)-N-methyl-7-(trifluoromethyl)spiro[chromeno[4,3-d]thiazole-4,1′-cyclohexane]-4′-carboxamide], which IC50 is on record?
A: The IC50 was 1000 to 10000 nM.

Q: How did the IC50 turn out when CCOC(=O)CCCC1(C)Oc2cc(C(F)(F)F)ccc2-c2nc(NC(=O)c3c(OC)ncnc3OC)sc21 (centres unmarked) [compound 104, ethyl 4-(2-(4,6-dimethoxypyrimidine-5-carboxamido)-4-methyl-7-(trifluoromethyl)-4H-chromeno[4,3-d]thiazol-4-yl)butanoate] was run?
A: Its IC50 is 100 to 1000 nM.

Q: With CCC1(CC)Oc2cc(C(F)F)ccc2-c2nc(NC(=O)c3c(OC)ncnc3OC)sc21 [compound 105, N-(7-(difluoromethyl)-4,4-diethyl-4H-chromeno[4,3-d]thiazol-2-yl)-4,6-dimethoxypyrimidine-5-carboxamide] as the molecule, how does the IC50 read?
A: Its IC50 is 100 to 1000 nM.

Q: How did the IC50 turn out when COc1ncnc(OC)c1C(=O)Nc1nc2c(s1)C1(CCN(C(=O)OC(C)(C)C)C1)Oc1cc(C(F)(F)F)ccc1-2 (centres unmarked) [compound 106, tert-butyl 2-(4,6-dimethoxypyrimidine-5-carboxamido)-7-(trifluoromethyl)spiro[chromeno[4,3-d]thiazole-4,3′-pyrrolidine]-1′-carboxylate] was run?
A: The IC50 was 100 to 1000 nM.

Q: CCC1(CC)Oc2cnccc2-c2nc(NC(=O)c3c(OC)ncnc3OC)sc21 [compound 107] was tested. Which IC50 did it give?
A: The IC50 was 1000 to 10000 nM.

Q: With COc1ncnc(OC)c1C(=O)Nc1nc2c(s1)C1(COC(C)(C)OC1)Oc1cc(C(F)(F)F)ccc1-2 [compound 108, N-(2′,2′-dimethyl-7-(trifluoromethyl)spiro[chromeno[4,3-d]thiazole-4,5′-[1,3]dioxan]-2-yl)-4,6-dimethoxypyrimidine-5-carboxamide] as the molecule, how does the IC50 read?
A: The IC50 was 100 to 1000 nM.

Q: With COc1ncnc(OC)c1C(=O)Nc1nc2c(s1)C1(CCC(NC(=O)OC(C)(C)C)CC1)Oc1cc(C(F)(F)F)ccc1-2 (centres unmarked) [compound 109] as the molecule, how does the IC50 read?
A: Its IC50 is 100 to 1000 nM.

Q: CCC1(CC)Oc2cc(C(F)(F)F)ccc2-c2nc(NCc3c(OC)ncnc3OC)sc21 [compound 110, N-((4,6-dimethoxypyrimidin-5-yl)methyl)-4,4-diethyl-7-(trifluoromethyl)-4H-chromeno[4,3-d]thiazol-2-amine] was tested. Which IC50 did it give?
A: Its IC50 is 1000 to 10000 nM.

Q: Which IC50 does the source give for CCC1(CC)Oc2cc(C(F)(F)F)ccc2-c2nc(NC(=O)c3c(Cl)ncnc3Cl)sc21 [compound 111, 4,6-dichloro-N-(4,4-diethyl-7-(trifluoromethyl)-4H-chromeno[4,3-d]thiazol-2-yl)pyrimidine-5-carboxamide] here?
A: The IC50 was 1000 to 10000 nM.

Q: CCC1(CC)Oc2cc(C(F)(F)F)ccc2-c2nc(NC(=O)c3c(Cl)ncnc3OC)sc21 [compound 112, 4-chloro-N-(4,4-diethyl-7-(trifluoromethyl)-4H-chromeno[4,3-d]thiazol-2-yl)-6-methoxypyrimidine-5-carboxamide] was tested. Which IC50 did it give?
A: The IC50 was 100 to 1000 nM.

Q: With COc1ncnc(OC)c1C(=O)Nc1nc2c(s1)C(CO)(CO)Oc1cc(C(F)(F)F)ccc1-2 [compound 113, N-(4,4-bis(hydroxymethyl)-7-(trifluoromethyl)-4H-chromeno[4,3-d]thiazol-2-yl)-4,6-dimethoxypyrimidine-5-carboxamide] as the molecule, how does the IC50 read?
A: Its IC50 is 1000 to 10000 nM.

Q: Which IC50 does the source give for COc1ncnc(OC)c1C(=O)Nc1nc2c(s1)C(C)(CCCC(=O)O)Oc1cc(C(F)(F)F)ccc1-2 (centres unmarked) [compound 114, 4-(2-(4,6-dimethoxypyrimidine-5-carboxamido)-4-methyl-7-(trifluoromethyl)-4H-chromeno[4,3-d]thiazol-4-yl) butanoic acid] here?
A: The IC50 was 1000 to 10000 nM.

Q: COc1ncnc(OC)c1C(=O)Nc1nc2c(s1)C1(CN(C(=O)OC(C)C)C1)Oc1cc(C(F)(F)F)ccc1-2 [compound 115, isopropyl 2′-(4,6-dimethoxypyrimidine-5-carboxamido)-7′-(trifluoromethyl)spiro[azetidine-3,4′-chromeno[4,3-d]thiazole]-1-carboxylate] was tested. Which IC50 did it give?
A: Its IC50 is 100 to 1000 nM.

Q: With COc1ncnc(OC)c1C(=O)Nc1nc2c(s1)C1(CCC(C(=O)N(C)C)CC1)Oc1cc(C(F)(F)F)ccc1-2 (centres unmarked) [compound 116, 2-(4,6-dimethoxypyrimidine-5-carboxamido)-N,N-dimethyl-7-(trifluoromethyl)spiro[chromeno[4,3-d]thiazole-4,1′-cyclohexane]-4′-carboxamide] as the molecule, how does the IC50 read?
A: Its IC50 is 1000 to 10000 nM.

Q: Which IC50 does the source give for CCC1(CC)Oc2cc(C(C)=O)ccc2-c2nc(NC(=O)c3c(OC)ncnc3OC)sc21 [compound 117, N-(7-acetyl-4,4-diethyl-4H-chromeno[4,3-d]thiazol-2-yl)-4,6-dimethoxypyrimidine-5-carboxamide] here?
A: Its IC50 is 1000 to 10000 nM.

Q: Which IC50 does the source give for COCOCC1(COCOC)Oc2cc(C(F)(F)F)ccc2-c2nc(NC(=O)c3c(OC)ncnc3OC)sc21 [compound 118] here?
A: Its IC50 is 100 to 1000 nM.

Q: For C=CCc1ncnc(OC)c1C(=O)Nc1nc2c(s1)C(CC)(CC)Oc1cc(C(F)(F)F)ccc1-2 [compound 119, 4-allyl-N-(4,4-diethyl-7-(trifluoromethyl)-4H-chromeno[4,3-d]thiazol-2-yl)-6-methoxypyrimidine-5-carboxamide], which IC50 is on record?
A: The IC50 was 1000 to 10000 nM.

Q: For CCC1(CC)Oc2cc(C(F)(F)F)ccc2-c2nc(NC(=O)c3c(NC)ncnc3OC)sc21 [compound 120, N-(4,4-diethyl-7-(trifluoromethyl)-4H-chromeno[4,3-d]thiazol-2-yl)-4-methoxy-6-(methylamino)pyrimidine-5-carboxamide], which IC50 is on record?
A: Its IC50 is 1000 to 10000 nM.

Q: Which IC50 does the source give for CCC1(CC)Oc2cc(C(F)(F)F)ccc2-c2nc(NC(=O)c3c(O)ncnc3OC)sc21 [compound 121, N-(4,4-diethyl-7-(trifluoromethyl)-4H-chromeno[4,3-d]thiazol-2-yl)-4-hydroxy-6-methoxypyrimidine-5-carboxamide] here?
A: The IC50 was at least 10000 nM.

Q: Which IC50 does the source give for CCC1(CC)Oc2cc(C(F)(F)F)ccc2-c2nc(NC(=O)c3c(OC)ncnc3OCOC)sc21 [compound 122, N-(4,4-diethyl-7-(trifluoromethyl)-4H-chromeno[4,3-d]thiazol-2-yl)-4-methoxy-6-(methoxymethoxy)pyrimidine-5-carboxamide] here?
A: The IC50 was at least 10000 nM.

Q: How did the IC50 turn out when COc1ncnc(OC)c1C(=O)Nc1nc2c(s1)C1(CCC(C(=O)OC(C)C)CC1)Oc1cc(C(F)(F)F)ccc1-2 (centres unmarked) [compound 123, isopropyl 2-(4,6-dimethoxypyrimidine-5-carboxamido)-7-(trifluoromethyl)spiro[chromeno[4,3-d]thiazole-4,1′-cyclohexane]-4′-carboxylate] was run?
A: Its IC50 is under 100 nM.
